15 compounds from US8481540B2, “Inhibitors of bruton's tyrosine kinase” (Hoffmann-La Roche Inc., priority 2010, dated 2013) can be followed below.

Structures are written as SMILES. Read-outs that look alike come from different tables or passages of the source.

Data set [1] concerns B cells in human blood. The experiment in a line: Inhibition of B cell activation in whole blood measured by CD69 expression. It counts as cell-based. The settings on record: read-out: Human Whole Blood. An outline of the steps:
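Heparinised human whole blood was preincubated with compound (nine-point, three-fold dilutions) for 30 min at 37 °C. It was then stimulated with 50 μg/ml goat F(ab′)2 anti-human IgM for 20 hours. CD20/CD69 staining, red-cell lysis and flow cytometry gave percent CD69-positive cells, from which IC50 values were calculated.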

Setting [2] is: CD69-positive, CD20-positive cells after anti-IgM stimulation, human whole blood, 20 hours.

Broadly, the melting point is the temperature of the solid-liquid transition. Regarding `Cn1nc(-c2cccc(-n3ncc4cc(C(C)(C)C)cc(F)c4c3=O)c2CO)cc(Nc2ccn(C[C@@H](O)CO)n2)c1=O` [I-68, 6-tert-Butyl-2-(3-{5-[1-((R)-2,3-dihydroxy-propyl)-1H-pyrazol-3-ylamino]-1-methyl-6-oxo-1,6-dihydro-pyridazin-3-yl}-2-hydroxymethyl-phenyl)-8-fluoro-2H-phthalazin-1-one], the melting point fell in the range of 245 to 250 °C. The IC50 in data set [1] (setting [2]) came to 61 nM.

Compound `Cn1nc(Nc2cc(-c3cccc(-n4ncc5cc(C(C)(C)C)cc(F)c5c4=O)c3CO)nn(C)c2=O)cc1CN1CCC1` [I-58] had a melting point of 214 to 217 °C. Also, the IC50 in data set [1] (setting [2]) came to 2 nM.

The compound `CN1C[C@@H]2C[C@H]1CN2Cc1ccc(Nc2cc(-c3cccc(-n4ncc5cc(C(C)(C)C)cc(F)c5c4=O)c3CO)nn(C)c2=O)nc1` [I-43, 6-tert-Butyl-8-fluoro-2-(2-hydroxymethyl-3-{1-methyl-5-[5-((1S,4S)-5-methyl-2,5-diaza-bicyclo[2.2.1]hept-2-ylmethyl)-pyridin-2-ylamino]-6-oxo-1,6-dihydro-pyridazin-3-yl}-phenyl)-2H-phthalazin-1-one] had a melting point of 183 to 186 °C. Also, in data set [1] (setting [2]), the IC50 was determined as 41 nM.

In the case of `Cn1nc(-c2cccc(-n3ncc4cc(C(C)(C)C)cc(F)c4c3=O)c2CO)cc(Nc2cnc(CNC3CCC3)cn2)c1=O` [I-35, 6-tert-Butyl-2-{3-[5-(5-cyclobutylaminomethyl-pyrazin-2-ylamino)-1-methyl-6-oxo-1,6-dihydro-pyridazin-3-yl]-2-hydroxymethyl-phenyl}-8-fluoro-2H-phthalazin-1-one], the melting point lay in the range of 163 to 167 °C. Further, in data set [1] (setting [2]), the IC50 came to 74 nM.

Compound `CN(C)CC(C)(C)Oc1ccc(Nc2cc(-c3cccc(-n4ncc5cc(C(C)(C)C)cc(F)c5c4=O)c3CO)nn(C)c2=O)nc1` [I-6, 6-tert-Butyl-2-(3-{5-[5-(2-dimethylamino-1,1-dimethyl-ethoxy)-pyridin-2-ylamino]-1-methyl-6-oxo-1,6-dihydro-pyridazin-3-yl}-2-hydroxymethyl-phenyl)-8-fluoro-2H-phthalazin-1-one] came in with a melting point of 136 to 144 °C. In addition, the IC50 in data set [1] (setting [2]) is 31 nM.

`Cn1nc(-c2cccc(-n3ncc4cc(C(C)(C)C)cc(F)c4c3=O)c2CO)cc(Nc2ccc(S(C)(=O)=O)cn2)c1=O` [I-3, 6-tert-Butyl-8-fluoro-2-[2-hydroxymethyl-3-[5-(5-methanesulfonyl-pyridin-2-ylamino)-1-methyl-6-oxo-1,6-dihydro-pyridazin-3-yl]-phenyl}-2H-phthalazin-1-one] returned a melting point of 225 to 230 °C. Further, the IC50 in data set [1] (Homo sapiens, 20 h) came out at 45 nM.

In the case of `COC1CN(Cc2ccc(Nc3cc(-c4cccc(-n5ncc6cc(C(C)(C)C)cc(F)c6c5=O)c4CO)nn(C)c3=O)nc2)C1` [I-4, 6-tert-Butyl-8-fluoro-2-(2-hydroxymethyl-3-{5-[5-(3-methoxy-azetidin-1-ylmethyl)-pyridin-2-ylamino]-1-methyl-6-oxo-1,6-dihydro-pyridazin-3-yl}-phenyl)-2H-phthalazin-1-one], the melting point lay in the range of 140 to 142 °C. Moreover, the IC50 in data set [1] (setting [2]) amounted to 122 nM.

`CCN1CCN(c2ccc(Nc3cc(-c4cccc(-n5ncc6cc(C(C)(C)C)cc(F)c6c5=O)c4CO)nn(C)c3=O)nc2)CC1` [I-69, 6-tert-Butyl-2-(3-{5-[5-(4-ethyl-piperazin-1-yl)-pyridin-2-ylamino]-1-methyl-6-oxo-1,6-dihydro-pyridazin-3-yl}-2-hydroxymethyl-phenyl)-8-fluoro-2H-phthalazin-1-one]: the melting point lay in the range of 245 to 247 °C. For the same compound, the IC50 in data set [1] (setting [2]) is 18 nM.

The compound `CN1[C@@H]2CC[C@H]1CN(Cc1ccc(Nc3cc(-c4cccc(-n5ncc6cc(C(C)(C)C)cc(F)c6c5=O)c4CO)nn(C)c3=O)nc1)C2` [I-5, 6-tert-Butyl-8-fluoro-2-(2-hydroxymethyl-3-{1-methyl-5-[5-(8-methyl-3,8-diaza-bicyclo[3.2.1]oct-3-ylmethyl)-pyridin-2-ylamino]-6-oxo-1,6-dihydro-pyridazin-3-yl}-phenyl)-2H-phthalazin-1-one] returned a melting point of 162 to 165 °C. The IC50 in data set [1] (setting [2]) came to 25 nM.

On to `Cn1nc(-c2cccc(-n3ncc4cc(C(C)(C)C)cc(F)c4c3=O)c2CO)cc(Nc2ccn(CC(C)(C)O)n2)c1=O` [I-70, 6-tert-Butyl-8-fluoro-2-(2-hydroxymethyl-3-{5-[1-(2-hydroxy-2-methyl-propyl)-1H-pyrazol-3-ylamino]-1-methyl-6-oxo-1,6-dihydro-pyridazin-3-yl}-phenyl)-2H-phthalazin-1-one], for which the melting point was 165 to 170 °C. The IC50 in data set [1] (setting [2]) was 117 nM.

`CN(C)CC(C)(C)Oc1cnc(Nc2cc(-c3cccc(-n4ncc5cc(C(C)(C)C)cc(F)c5c4=O)c3CO)nn(C)c2=O)cn1` [I-38, 6-tert-Butyl-2-(3-{5-[5-(2-dimethylamino-1,1-dimethyl-ethoxy)-pyrazin-2-ylamino]-1-methyl-6-oxo-1,6-dihydro-pyridazin-3-yl}-2-hydroxymethyl-phenyl)-8-fluoro-2H-phthalazin-1-one] registered a melting point of 235 to 240 °C. The IC50 in data set [1] (setting [2]) was 12 nM.

`Cn1nc(-c2cccc(-n3ncc4cc(C(C)(C)C)cc(F)c4c3=O)c2CO)cc(Nc2ccc(CN3CCC3)cn2)c1=O` [I-7, 2-{3-[5-(5-Azetidin-1-ylmethyl-pyridin-2-ylamino)-1-methyl-6-oxo-1,6-dihydro-pyridazin-3-yl]-2-hydroxymethyl-phenyl}-6-tert-butyl-8-fluoro-2H-phthalazin-1-one] had a melting point of 160 to 163 °C. In addition, the IC50 in data set [1] (setting [2]) is 20 nM.

As for `CCNC(C)(C)c1ccc(Nc2cc(-c3cccc(-n4ncc5cc(C(C)(C)C)cc(F)c5c4=O)c3CO)nn(C)c2=O)nc1` [I-1, 6-tert-butyl-2-(3-{5-[5-(1-ethylamino-1-methyl-ethyl)-pyridin-2-ylamino]-1-methyl-6-oxo-1,6-dihydro-pyridazin-3-yl}-2-hydroxymethyl-phenyl)-8-fluoro-2H-phthalazin-1-one], the melting point is 229 to 233 °C. Besides, the IC50 in data set [1] (setting [2]) is 19 nM.

Turning to `CN(C)Cc1ccc(Nc2cc(-c3cccc(-n4ncc5cc(C(C)(C)C)cc(F)c5c4=O)c3CO)nn(C)c2=O)nc1` [I-8, 6-tert-Butyl-2-{3-[5-(5-dimethylaminomethyl-pyridin-2-ylamino)-1-methyl-6-oxo-1,6-dihydro-pyridazin-3-yl]-2-hydroxymethyl-phenyl}-8-fluoro-2H-phthalazin-1-one], the melting point is 170 to 174 °C. Further, the IC50 in data set [1] (setting [2]) was determined as 20 nM.

The compound `CN1CCn2nc(Nc3cc(-c4cccc(-n5ncc6cc(C(C)(C)C)cc(F)c6c5=O)c4CO)nn(C)c3=O)cc2C1` [I-59] gave a melting point of 188 to 193 °C. Also, the IC50 in data set [1] (setting [2]) was found to be 5 nM.
